How the values were obtained:
Assay in all cases: Broader kinase panel (PerkinElmer)
Assay type in all cases: biochemical
[1] = target: SYK (Homo sapiens, UniProt P43405); conditions: 100 nM; read-out: Average Percent Inhibition
Description: (§1) […]. […] […].

[2] = target: T1, CDK5/p25 (Homo sapiens, UniProt Q00535); conditions: 100 nM; read-out: Average Percent Inhibition
T1 construct: purchased In-house HTRF panel (56 kinases) and PerkinElmer (161-kinase panel)
Description: as §1

[3] = target: T2, MST3 (STK24) (Homo sapiens, UniProt Q9Y6E0); conditions: 100 nM; read-out: Average Percent Inhibition
T2 construct: purchased In-house HTRF panel (56 kinases) and PerkinElmer (161-kinase panel)
Description: as §1

[4] = target: T3, p38-gamma (Homo sapiens, UniProt P53778); conditions: 100 nM; read-out: Average Percent Inhibition
T3 construct: purchased In-house HTRF panel (56 kinases) and PerkinElmer (161-kinase panel)
Description: as §1

[5] = target: T4, Ca MK2a (Homo sapiens, UniProt Q9UQM7); conditions: 100 nM; read-out: Average Percent Inhibition
T4 construct: purchased In-house HTRF panel (56 kinases) and PerkinElmer (161-kinase panel)
T4 sequence (Q9UQM7 whole entry): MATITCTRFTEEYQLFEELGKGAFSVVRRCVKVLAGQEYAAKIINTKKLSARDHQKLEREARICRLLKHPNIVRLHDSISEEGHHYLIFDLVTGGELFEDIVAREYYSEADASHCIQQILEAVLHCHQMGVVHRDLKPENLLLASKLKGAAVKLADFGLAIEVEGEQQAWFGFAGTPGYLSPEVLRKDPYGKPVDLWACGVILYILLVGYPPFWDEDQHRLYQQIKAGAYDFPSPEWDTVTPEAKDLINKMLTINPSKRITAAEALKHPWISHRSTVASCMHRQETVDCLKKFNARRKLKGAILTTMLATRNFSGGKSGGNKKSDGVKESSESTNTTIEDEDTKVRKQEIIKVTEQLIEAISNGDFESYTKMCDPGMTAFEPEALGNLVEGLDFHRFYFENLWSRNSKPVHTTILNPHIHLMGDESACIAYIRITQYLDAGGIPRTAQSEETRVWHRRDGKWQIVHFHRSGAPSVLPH
Description: as §1

[6] = target: T5, SRC (Homo sapiens, UniProt P12931); conditions: 100 nM; read-out: Average Percent Inhibition
T5 construct: purchased In-house HTRF panel (56 kinases) and PerkinElmer (161-kinase panel)
Description: as §1

[7] = target: T6, AurA (Homo sapiens, UniProt O14965); conditions: 100 nM; read-out: Average Percent Inhibition
T6 construct: purchased In-house HTRF panel (56 kinases) and PerkinElmer (161-kinase panel)
Description: as §1

[8] = target: T7, AKT3 (Homo sapiens, UniProt Q9Y243); conditions: 100 nM; read-out: Average Percent Inhibition
T7 construct: purchased In-house HTRF panel (56 kinases) and PerkinElmer (161-kinase panel)
T7 sequence (Q9Y243 whole entry): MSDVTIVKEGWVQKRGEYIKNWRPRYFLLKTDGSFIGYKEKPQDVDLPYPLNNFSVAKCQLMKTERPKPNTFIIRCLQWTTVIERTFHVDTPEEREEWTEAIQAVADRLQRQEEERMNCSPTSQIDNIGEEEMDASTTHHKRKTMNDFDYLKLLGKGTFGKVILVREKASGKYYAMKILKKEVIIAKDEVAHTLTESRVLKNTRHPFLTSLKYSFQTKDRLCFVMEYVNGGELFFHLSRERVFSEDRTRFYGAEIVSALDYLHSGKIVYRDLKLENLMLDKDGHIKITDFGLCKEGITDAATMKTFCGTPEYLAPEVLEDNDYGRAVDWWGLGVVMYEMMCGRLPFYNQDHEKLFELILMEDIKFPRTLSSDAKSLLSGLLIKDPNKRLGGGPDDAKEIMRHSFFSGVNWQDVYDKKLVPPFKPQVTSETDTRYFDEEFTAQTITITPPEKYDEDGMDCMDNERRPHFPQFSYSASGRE
Description: as §1

[9] = target: T8, EPHA8 (Homo sapiens, UniProt P29322); conditions: 100 nM; read-out: Average Percent Inhibition
T8 construct: purchased In-house HTRF panel (56 kinases) and PerkinElmer (161-kinase panel)
Description: as §1

[10] = target: T9, PKGa (Homo sapiens, UniProt Q13976); conditions: 100 nM; read-out: Average Percent Inhibition
T9 construct: purchased In-house HTRF panel (56 kinases) and PerkinElmer (161-kinase panel)
Description: as §1

[11] = target: T10, SGK2 (Homo sapiens, UniProt Q9HBY8); conditions: 100 nM; read-out: Average Percent Inhibition
T10 construct: purchased In-house HTRF panel (56 kinases) and PerkinElmer (161-kinase panel)
Description: as §1

[12] = target: T11, Abl (H396P) (Homo sapiens, UniProt P00519, H396P); conditions: 100 nM; read-out: Average Percent Inhibition
T11 construct: purchased In-house HTRF panel (56 kinases) and PerkinElmer (161-kinase panel)
Description: as §1

[13] = target: FLT3 (Homo sapiens, UniProt P36888); conditions: 100 nM; read-out: Average Percent Inhibition
Description: as §1

[14] = target: T12, INSR (Homo sapiens, UniProt P06213); conditions: 100 nM; read-out: Average Percent Inhibition
T12 construct: purchased In-house HTRF panel (56 kinases) and PerkinElmer (161-kinase panel)
Description: as §1

[15] = target: T13, ROCK2 (Homo sapiens, UniProt O75116); conditions: 100 nM; read-out: Average Percent Inhibition
T13 construct: purchased In-house HTRF panel (56 kinases) and PerkinElmer (161-kinase panel)
Description: as §1

[16] = target: T14, PDGFRA (D842V) (Homo sapiens, UniProt P16234, D842V); conditions: 100 nM; read-out: Average Percent Inhibition
T14 construct: purchased In-house HTRF panel (56 kinases) and PerkinElmer (161-kinase panel)
T14 sequence (P16234 24-1089 D842V): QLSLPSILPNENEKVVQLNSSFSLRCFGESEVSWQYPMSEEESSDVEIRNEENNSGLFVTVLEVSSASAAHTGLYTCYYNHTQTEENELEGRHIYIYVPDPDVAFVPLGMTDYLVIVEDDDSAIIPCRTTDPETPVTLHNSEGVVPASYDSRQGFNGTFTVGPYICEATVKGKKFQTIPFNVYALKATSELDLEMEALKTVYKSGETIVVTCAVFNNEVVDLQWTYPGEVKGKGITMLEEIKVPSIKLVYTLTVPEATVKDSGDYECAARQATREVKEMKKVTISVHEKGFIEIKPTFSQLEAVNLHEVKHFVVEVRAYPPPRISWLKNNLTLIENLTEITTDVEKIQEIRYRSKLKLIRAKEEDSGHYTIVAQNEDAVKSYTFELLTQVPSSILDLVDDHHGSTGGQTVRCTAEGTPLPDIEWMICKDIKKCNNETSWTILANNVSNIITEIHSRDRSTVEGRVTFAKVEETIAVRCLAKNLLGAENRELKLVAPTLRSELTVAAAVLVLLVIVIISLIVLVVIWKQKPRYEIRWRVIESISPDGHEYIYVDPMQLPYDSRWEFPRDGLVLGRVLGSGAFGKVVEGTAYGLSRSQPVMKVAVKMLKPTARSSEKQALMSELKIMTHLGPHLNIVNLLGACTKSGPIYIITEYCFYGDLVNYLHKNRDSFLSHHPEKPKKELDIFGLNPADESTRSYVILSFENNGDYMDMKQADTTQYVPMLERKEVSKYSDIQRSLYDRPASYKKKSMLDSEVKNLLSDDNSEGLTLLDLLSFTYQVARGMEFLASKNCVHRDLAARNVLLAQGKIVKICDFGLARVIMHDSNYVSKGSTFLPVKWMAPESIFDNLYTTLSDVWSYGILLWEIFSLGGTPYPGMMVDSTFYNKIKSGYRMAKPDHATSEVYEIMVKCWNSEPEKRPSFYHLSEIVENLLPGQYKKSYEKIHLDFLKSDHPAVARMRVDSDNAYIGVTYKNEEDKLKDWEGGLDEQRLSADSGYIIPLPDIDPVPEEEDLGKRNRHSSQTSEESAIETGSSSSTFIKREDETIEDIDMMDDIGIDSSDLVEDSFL
Description: as §1

[17] = target: T15, EPHA3 (Homo sapiens, UniProt P29320); conditions: 100 nM; read-out: Average Percent Inhibition
T15 construct: purchased In-house HTRF panel (56 kinases) and PerkinElmer (161-kinase panel)
Description: as §1

[18] = target: T16, p38alpha/SAPK2a (T106M) (Homo sapiens, UniProt Q16539, T106M); conditions: 100 nM; read-out: Average Percent Inhibition
T16 construct: purchased In-house HTRF panel (56 kinases) and PerkinElmer (161-kinase panel)
Description: as §1

[19] = target: EPHA2 (Homo sapiens, UniProt P29317); conditions: 100 nM; read-out: Average Percent Inhibition
Description: as §1

[20] = target: T17, ABL1(E255K) (Homo sapiens, UniProt P00519, E255K); conditions: 100 nM; read-out: Average Percent Inhibition
T17 construct: purchased In-house HTRF panel (56 kinases) and PerkinElmer (161-kinase panel)
Description: as §1

[21] = target: T18, MARK1 (Homo sapiens, UniProt Q9P0L2); conditions: 100 nM; read-out: Average Percent Inhibition
T18 construct: purchased In-house HTRF panel (56 kinases) and PerkinElmer (161-kinase panel)
Description: as §1

[22] = target: T19, CHK1 (Homo sapiens, UniProt O14757); conditions: 100 nM; read-out: Average Percent Inhibition
T19 construct: purchased In-house HTRF panel (56 kinases) and PerkinElmer (161-kinase panel)
T19 sequence (O14757 whole entry): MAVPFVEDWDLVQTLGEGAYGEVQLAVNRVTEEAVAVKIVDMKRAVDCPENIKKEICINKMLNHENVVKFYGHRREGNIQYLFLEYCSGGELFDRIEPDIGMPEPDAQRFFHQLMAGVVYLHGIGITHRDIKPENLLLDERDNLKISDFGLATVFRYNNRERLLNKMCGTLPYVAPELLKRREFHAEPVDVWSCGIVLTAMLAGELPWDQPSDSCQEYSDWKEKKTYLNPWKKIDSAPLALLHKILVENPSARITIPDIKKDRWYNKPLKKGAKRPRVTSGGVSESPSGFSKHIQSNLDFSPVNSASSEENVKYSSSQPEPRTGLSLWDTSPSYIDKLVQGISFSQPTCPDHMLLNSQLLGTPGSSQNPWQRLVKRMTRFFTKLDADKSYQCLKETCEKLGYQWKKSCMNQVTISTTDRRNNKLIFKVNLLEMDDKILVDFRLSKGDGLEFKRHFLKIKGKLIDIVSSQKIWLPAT
Description: as §1

[23] = target: T20, DCAMKL1 (Homo sapiens, UniProt O15075); conditions: 100 nM; read-out: Average Percent Inhibition
T20 construct: purchased In-house HTRF panel (56 kinases) and PerkinElmer (161-kinase panel)
Description: as §1

[24] = target: T21, c-Raf (Homo sapiens, UniProt P04049); conditions: 100 nM; read-out: Average Percent Inhibition
T21 construct: purchased In-house HTRF panel (56 kinases) and PerkinElmer (161-kinase panel)
Description: as §1

[25] = target: LCK (Homo sapiens, UniProt P06239); conditions: 100 nM; read-out: Average Percent Inhibition
LCK, sequence (P06239 whole entry, species assumed): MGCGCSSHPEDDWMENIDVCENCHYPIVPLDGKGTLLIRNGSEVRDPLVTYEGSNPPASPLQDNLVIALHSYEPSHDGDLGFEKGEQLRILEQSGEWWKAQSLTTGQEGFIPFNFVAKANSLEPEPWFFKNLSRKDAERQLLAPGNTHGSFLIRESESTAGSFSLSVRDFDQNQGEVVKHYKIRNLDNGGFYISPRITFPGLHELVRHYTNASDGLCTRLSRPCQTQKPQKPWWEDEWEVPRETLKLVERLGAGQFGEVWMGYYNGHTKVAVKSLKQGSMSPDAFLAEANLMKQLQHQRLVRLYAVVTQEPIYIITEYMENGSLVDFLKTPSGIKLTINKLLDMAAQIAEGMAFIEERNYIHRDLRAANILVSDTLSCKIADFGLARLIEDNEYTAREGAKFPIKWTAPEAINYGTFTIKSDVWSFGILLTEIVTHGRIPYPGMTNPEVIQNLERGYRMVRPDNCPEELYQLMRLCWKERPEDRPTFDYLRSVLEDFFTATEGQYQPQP
Description: as §1

[26] = target: T22, Abl (Q252H) (Homo sapiens, UniProt P00519, Q252H); conditions: 100 nM; read-out: Average Percent Inhibition
T22 construct: purchased In-house HTRF panel (56 kinases) and PerkinElmer (161-kinase panel)
Description: as §1

[27] = target: T23, Arg (Homo sapiens, UniProt P42684); conditions: 100 nM; read-out: Average Percent Inhibition
T23 construct: purchased In-house HTRF panel (56 kinases) and PerkinElmer (161-kinase panel)
Description: as §1

[28] = target: T24, FGR (Homo sapiens, UniProt P09769); conditions: 100 nM; read-out: Average Percent Inhibition
T24 construct: purchased In-house HTRF panel (56 kinases) and PerkinElmer (161-kinase panel)
Description: as §1

[29] = target: T25, p70S6K (Homo sapiens, UniProt P23443); conditions: 100 nM; read-out: Average Percent Inhibition
T25 construct: purchased In-house HTRF panel (56 kinases) and PerkinElmer (161-kinase panel)
Description: as §1

[30] = target: RET (Homo sapiens, UniProt P07949); conditions: 100 nM; read-out: Average Percent Inhibition
Description: as §1

[31] = target: T26, PhKg1 (Homo sapiens, UniProt Q16816); conditions: 100 nM; read-out: Average Percent Inhibition
T26 construct: purchased In-house HTRF panel (56 kinases) and PerkinElmer (161-kinase panel)
T26 sequence (Q16816 whole entry): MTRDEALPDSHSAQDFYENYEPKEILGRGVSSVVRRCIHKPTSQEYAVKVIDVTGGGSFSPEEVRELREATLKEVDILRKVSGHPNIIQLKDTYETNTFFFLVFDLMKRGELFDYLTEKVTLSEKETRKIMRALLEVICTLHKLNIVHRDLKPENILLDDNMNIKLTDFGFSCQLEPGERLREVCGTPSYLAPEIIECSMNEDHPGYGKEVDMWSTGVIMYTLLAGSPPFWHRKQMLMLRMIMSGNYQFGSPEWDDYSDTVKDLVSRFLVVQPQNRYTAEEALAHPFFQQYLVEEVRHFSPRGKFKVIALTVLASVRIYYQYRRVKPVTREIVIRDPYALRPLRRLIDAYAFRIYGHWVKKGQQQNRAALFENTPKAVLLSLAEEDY
Description: as §1

[32] = target: T27, ABL (Homo sapiens, UniProt P00519); conditions: 100 nM; read-out: Average Percent Inhibition
T27 construct: purchased In-house HTRF panel (56 kinases) and PerkinElmer (161-kinase panel)
Description: as §1

[33] = target: T28, AXL (Homo sapiens, UniProt P30530); conditions: 100 nM; read-out: Average Percent Inhibition
T28 construct: purchased In-house HTRF panel (56 kinases) and PerkinElmer (161-kinase panel)
T28 sequence (P30530 26-894, species assumed): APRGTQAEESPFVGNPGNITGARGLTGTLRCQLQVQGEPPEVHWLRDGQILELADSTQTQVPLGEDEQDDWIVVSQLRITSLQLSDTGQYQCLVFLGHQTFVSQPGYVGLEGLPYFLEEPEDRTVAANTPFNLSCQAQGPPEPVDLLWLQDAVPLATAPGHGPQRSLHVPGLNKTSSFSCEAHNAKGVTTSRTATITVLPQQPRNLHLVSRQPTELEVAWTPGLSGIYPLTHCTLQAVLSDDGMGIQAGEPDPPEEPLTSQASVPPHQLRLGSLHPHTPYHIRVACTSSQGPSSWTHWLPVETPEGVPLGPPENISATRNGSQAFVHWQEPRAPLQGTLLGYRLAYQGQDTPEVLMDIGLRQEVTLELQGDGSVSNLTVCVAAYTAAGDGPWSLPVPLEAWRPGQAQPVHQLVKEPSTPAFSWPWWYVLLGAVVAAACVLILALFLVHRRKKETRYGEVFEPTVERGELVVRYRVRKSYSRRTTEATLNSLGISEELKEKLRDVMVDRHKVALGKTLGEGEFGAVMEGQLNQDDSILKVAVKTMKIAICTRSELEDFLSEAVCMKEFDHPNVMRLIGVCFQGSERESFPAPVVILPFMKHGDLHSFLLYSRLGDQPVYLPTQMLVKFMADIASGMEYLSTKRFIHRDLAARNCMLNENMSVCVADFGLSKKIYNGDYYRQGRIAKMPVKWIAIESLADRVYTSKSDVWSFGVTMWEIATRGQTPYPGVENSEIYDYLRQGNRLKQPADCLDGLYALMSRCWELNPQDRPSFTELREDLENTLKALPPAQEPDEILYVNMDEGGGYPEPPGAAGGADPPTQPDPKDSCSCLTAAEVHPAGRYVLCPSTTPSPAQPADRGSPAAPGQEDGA
Description: as §1

[34] = target: T29, PRAK (Homo sapiens, UniProt Q8IW41); conditions: 100 nM; read-out: Average Percent Inhibition
T29 construct: purchased In-house HTRF panel (56 kinases) and PerkinElmer (161-kinase panel)
Description: as §1

[35] = target: T30, PAK5 (PAK7) (Homo sapiens, UniProt Q9P286); conditions: 100 nM; read-out: Average Percent Inhibition
T30 construct: purchased In-house HTRF panel (56 kinases) and PerkinElmer (161-kinase panel)
Description: as §1

[36] = target: T31, KIT[T670I] (Homo sapiens, UniProt P10721, T670I); conditions: 100 nM; read-out: Average Percent Inhibition
T31 construct: purchased In-house HTRF panel (56 kinases) and PerkinElmer (161-kinase panel)
Description: as §1

[37] = target: T32, Casein kinase 1g2 (Homo sapiens, UniProt P78368); conditions: 100 nM; read-out: Average Percent Inhibition
T32 construct: purchased In-house HTRF panel (56 kinases) and PerkinElmer (161-kinase panel)
Description: as §1

[38] = target: T33, AurC (Homo sapiens, UniProt Q9UQB9); conditions: 100 nM; read-out: Average Percent Inhibition
T33 construct: purchased In-house HTRF panel (56 kinases) and PerkinElmer (161-kinase panel)
Description: as §1

[39] = test system: CAMK2; conditions: 100 nM
Description: as §1

[40] = target: T34, BLK (Homo sapiens, UniProt P51451); conditions: 100 nM; read-out: Average Percent Inhibition
T34 construct: purchased In-house HTRF panel (56 kinases) and PerkinElmer (161-kinase panel)
Description: as §1

[41] = target: T35, EPHA5 (Homo sapiens, UniProt P54756); conditions: 100 nM; read-out: Average Percent Inhibition
T35 construct: purchased In-house HTRF panel (56 kinases) and PerkinElmer (161-kinase panel)
Description: as §1

[42] = target: T36, PKA (Homo sapiens, UniProt P17612); conditions: 100 nM; read-out: Average Percent Inhibition
T36 construct: purchased In-house HTRF panel (56 kinases) and PerkinElmer (161-kinase panel)
Description: as §1

[43] = target: T37, FGFR3 (Homo sapiens, UniProt P22607); conditions: 100 nM; read-out: Average Percent Inhibition
T37 construct: purchased In-house HTRF panel (56 kinases) and PerkinElmer (161-kinase panel)
T37 sequence (P22607 23-806): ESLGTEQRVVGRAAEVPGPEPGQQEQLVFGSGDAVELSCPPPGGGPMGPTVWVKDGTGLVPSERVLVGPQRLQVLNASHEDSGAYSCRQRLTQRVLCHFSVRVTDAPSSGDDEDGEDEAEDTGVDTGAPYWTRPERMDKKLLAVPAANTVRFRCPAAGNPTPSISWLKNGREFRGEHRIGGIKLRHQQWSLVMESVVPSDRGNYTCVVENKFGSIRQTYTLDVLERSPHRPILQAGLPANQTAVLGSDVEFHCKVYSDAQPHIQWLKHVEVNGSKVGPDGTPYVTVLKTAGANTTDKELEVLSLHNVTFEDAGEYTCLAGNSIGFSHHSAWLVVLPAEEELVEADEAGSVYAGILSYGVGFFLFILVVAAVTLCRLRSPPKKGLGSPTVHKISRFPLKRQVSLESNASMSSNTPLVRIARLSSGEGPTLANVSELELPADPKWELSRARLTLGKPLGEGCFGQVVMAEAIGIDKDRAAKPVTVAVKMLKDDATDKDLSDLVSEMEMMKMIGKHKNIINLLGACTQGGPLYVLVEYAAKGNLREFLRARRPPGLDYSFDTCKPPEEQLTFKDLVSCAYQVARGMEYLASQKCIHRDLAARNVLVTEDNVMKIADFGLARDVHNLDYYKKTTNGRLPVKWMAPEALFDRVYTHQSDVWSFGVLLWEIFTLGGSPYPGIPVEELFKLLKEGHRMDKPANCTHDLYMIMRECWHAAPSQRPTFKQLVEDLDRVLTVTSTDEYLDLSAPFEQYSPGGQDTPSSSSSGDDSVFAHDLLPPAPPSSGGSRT
Description: as §1

In the case of `CCN1C(=O)N(c2c(F)c(OC)cc(OC)c2F)Cc2cnc3[nH]c(CN4CCOCC4)cc3c21` [INCB054828, pemigatinib], the inhibition at 0.1 µM [1] is reported as -2%, the inhibition at 0.1 µM [2] is reported as -4% and the inhibition at 0.1 µM [3] is reported as 7%. The inhibition at 0.1 µM [4] was -3%, the inhibition at 0.1 µM [5] was 2% and the inhibition at 0.1 µM [6] was 1%. It also gave an inhibition at 0.1 µM [7] of 6%, an inhibition at 0.1 µM [8] of 3% and an inhibition at 0.1 µM [9] of -2%. It also gave an inhibition at 0.1 µM [10] of 1%, an inhibition at 0.1 µM [11] of -2% and an inhibition at 0.1 µM [12] of -1%. For the same compound, the inhibition at 0.1 µM [13] was 0%, the inhibition at 0.1 µM [14] was 1% and the inhibition at 0.1 µM [15] was 5%. The inhibition at 0.1 µM [16] was 18%, the inhibition at 0.1 µM [17] was 0% and the inhibition at 0.1 µM [18] was -3%. The inhibition at 0.1 µM [19] was 3%, the inhibition at 0.1 µM [20] was 6% and the inhibition at 0.1 µM [21] was 10%. The inhibition at 0.1 µM [22] was 0%, the inhibition at 0.1 µM [23] was -4% and the inhibition at 0.1 µM [24] was 3%. For the same compound, the inhibition at 0.1 µM [25] was -2%, the inhibition at 0.1 µM [26] was 1% and the inhibition at 0.1 µM [27] was -4%. The inhibition at 0.1 µM [28] was 3%, the inhibition at 0.1 µM [29] was 8% and the inhibition at 0.1 µM [30] was 7%. For the same compound, the inhibition at 0.1 µM [31] was -2%, the inhibition at 0.1 µM [32] was -4% and the inhibition at 0.1 µM [33] was -8%. For the same compound, the inhibition at 0.1 µM [34] was -2%, the inhibition at 0.1 µM [35] was 6% and the inhibition at 0.1 µM [36] was -2%. The inhibition at 0.1 µM [37] was -1%, the inhibition at 0.1 µM [38] was -4% and the “Average Percent Inhibition” value [39] was 2%. The inhibition at 0.1 µM [40] was -10%, the inhibition at 0.1 µM [41] was 2% and the inhibition at 0.1 µM [42] was 1%. The inhibition at 0.1 µM [43] was 98%.
